≈ marks a conversion by molar mass, not a printed value. Like-named read-outs stand apart in the source and are kept apart here.
Columns and labels:
[1] = Antitumor activity and toxicity on ascites Sarcoma 180 in CD 1 mice; format: in vivo; settings: mouse, in vivo, ip, read-out: % Toxic Deaths
Protocol: (§1) The antitumor activity of the compounds of the invention was tested on ascites Sarcoma 180.
(§2) Three month old CD 1 mice were used. Sarcoma 180 ascites cells were inoculated intraperitoneally (10^6 cells/mouse). For use in these tests, the compounds were dissolved in distilled water or in 5% ethyl alcohol in distilled water, then diluted with Ringers solution and administered i.p. 1 day after the tumor implant (10 ml./kg. of body weight).
(§3) The toxicity of the test compounds was evaluated by macroscopic autoptic examination mainly in terms of reduction in spleen size. The comparison of the effectiveness of the test compounds is based on the maximum increase in median survival time, as compared to untreated controls, over the dose range used. The number of Long Term Survivors (LTS) refers to tumor-free mice at the end of the experiment (60 days). Solid Sarcoma 180 was implanted subcutaneously by trocar in the flank of CD 1 mice according to standard methods. The mice were treated i.v. for 5 consecutive days, starting 1 day after the tumor implant. On the 11th day the tumor volume was measured by means of a caliper and evaluated according to the formula (a^2 × b)/2, a and b being the minimum and the maximum diameters respectively.

[2] = system: ascites Sarcoma 180; assay: as above; format: in vivo; settings: for % LTS: 60 days; for LTS (Long Term Survivors after 60 days): survivors/total; for Toxic Deaths: deaths/total
Protocol: as §1, §2, §3

[3] = system: Mouse Embryo Fibroblasts; assay: Proliferation of uninfected mouse embryo fibroblasts (MEF); format: cell-based; settings: Mus musculus, Fibroblast, 72 h, uninfected MEF, 3 days treatment, read-out: MEF No. of cells; for activity at 0.0062 µg/mL: dose 0.0062 μg/ml; for activity at 0.025 µg/mL: dose 0.0250 μg/ml; for activity at 0.1 µg/mL: dose 0.1 μg/ml; for activity at 0.4 µg/mL: dose 0.4 μg/ml
Protocol: (§4) Mouse embryo fibroblasts (MEF) were plated on 35 mm. Falcon plastic dishes and infected 24 hours later with Moloney Sarcoma Virus (MSV) in the presence of DEAE-dextran (25 μg./ml.). The samples were then treated for 3 days with different concentrations of the compounds of the invention. The number of foci of transformed cells was microscopically determined 5 days after the infection. Uninfected MEF were similarly treated and at the end of the experiment, the cells were counted in an haemocytometer. In all the experiments, the cells were incubated in a 5% CO2 incubator at 37° C.
(§5) For use in these tests the compounds were dissolved in distilled water or in 5% ethyl alcohol in distilled water and then diluted in culture medium.

[4] = as above; format: cell-based; settings: mouse, mouse embryo fibroblasts; calculated on dose-effects lines; uninfected MEF, 3 days treatment; read-out: MEF proliferation ID 50 (Inhibiting Dose 50%)
Protocol: as §4, §5

[5] = system: Moloney Sarcoma Virus (MSV); assay: Inhibition of MSV-M foci formation in mouse embryo fibroblasts; format: cell-based; settings: Fibroblast, 120 h, 3 days treatment; for IC50: calculated on dose-effects lines, read-out: MSV-M foci ID 50 (Inhibiting Dose 50%); for activity at 0.0062 µg/mL: dose 0.0062 μg/ml; for activity at 0.0062 µg/mL / activity at 0.025 µg/mL / activity at 0.1 µg/mL / activity at 0.4 µg/mL: foci counted 5 days after infection, read-out: MSV-M No. of foci; for activity at 0.025 µg/mL: dose 0.0250 μg/ml; for activity at 0.1 µg/mL: dose 0.1 μg/ml; for activity at 0.4 µg/mL: dose 0.4 μg/ml
Protocol: as §4, §5
The results of these tests are reported in Table I in terms of ID50 values (Inhibiting Dose 50%), calculated on dose-effects lines.

[6] = 0.2 mg./kg. i.p. 1 day after tumor implant
[7] = 1 mg./kg. i.p. 1 day after tumor implant
[8] = 5 mg./kg. i.p. 1 day after tumor implant
[9] = 12.5 mg./kg. i.p. 1 day after tumor implant
[10] = 25 mg./kg. i.p. 1 day after tumor implant
[11] = 50 mg./kg. i.p. 1 day after tumor implant

| SMILES | mortality ([1]; 0.2 mg./kg. i.p.) [%] | mortality ([1]; 1 mg./kg. i.p.) [%] | mortality ([1]; 5 mg./kg. i.p.) [%] | mortality ([1]; 12.5 mg./kg. i.p.) [%] | mortality ([1]; 25 mg./kg. i.p.) [%] | mortality ([1]; 50 mg./kg. i.p.) [%] | T/C (median survival time, % over untreated controls) [2, 6] [%] | % LTS [2, 6] [%] | LTS (Long Term Survivors after 60 days) [2, 6] | Toxic Deaths ([2]; 0.2 mg./kg. i.p.) | T/C (median survival time, % over untreated controls) [2, 7] [%] | % LTS [2, 7] [%] | LTS (Long Term Survivors after 60 days) [2, 7] | Toxic Deaths ([2]; 1 mg./kg. i.p.) | T/C (median survival time, % over untreated controls) [2, 8] [%] | % LTS [2, 8] [%] | LTS (Long Term Survivors after 60 days) [2, 8] | Toxic Deaths ([2]; 5 mg./kg. i.p.) | T/C (median survival time, % over untreated controls) [2, 9] [%] | % LTS [2, 9] [%] | also measured |
| --- | --- | --- | --- | --- | --- | --- | --- | --- | --- | --- | --- | --- | --- | --- | --- | --- | --- | --- | --- | --- | --- |
| COc1cccc2c1C(=O)c1c(O)c3c(c(O)c1C2=O)C[C@@](O)(C(=O)CN1CCCCC1)C[C@@H]3O[C@H]1C[C@H](N)[C@H](O)[C@H](C)O1 [14-(N-piperidino)-daunomycin] | 0 | 0 | 0 | 0 | 0 | 40 | 103 | 0 | 0/10 | 0/10 | 100 | 0 | 0/10 | 0/10 | 140 | 20 | 2/10 | 0/10 | 200 | 20 | LTS (Long Term Survivors after 60 days) [2, 9]: 2/10; Toxic Deaths ([2]; 12.5 mg./kg. i.p.): 0/10; T/C (median survival time, % over untreated controls) [2, 10]: 218%; % LTS [2, 10]: 20%; LTS (Long Term Survivors after 60 days) [2, 10]: 2/10; Toxic Deaths ([2]; 25 mg./kg. i.p.): 0/10; T/C (median survival time, % over untreated controls) [2, 11]: 144%; % LTS [2, 11]: 20%; LTS (Long Term Survivors after 60 days) [2, 11]: 2/10; Toxic Deaths ([2]; 50 mg./kg. i.p.): 4/10; activity at 0.0062 µg/mL [3]: 87%; activity at 0.025 µg/mL [3]: 71%; activity at 0.1 µg/mL [3]: 58%; activity at 0.4 µg/mL [3]: 24%; IC50 at 72 h [4]: 0.1 µg/mL (≈ 0.164 µM); IC50 [5]: 0.08 µg/mL (≈ 0.131 µM); activity at 0.0062 µg/mL [5]: 100%; activity at 0.025 µg/mL [5]: 89%; activity at 0.1 µg/mL [5]: 42%; activity at 0.4 µg/mL [5]: 0% |
| COc1cccc2c1C(=O)c1c(O)c3c(c(O)c1C2=O)C[C@@](O)(C(=O)CN1CCN(CCO)CC1)C[C@@H]3O[C@H]1C[C@H](N)[C@H](O)[C@H](C)O1 [14-[N-(N'-hydroxyethyl)piperazino]-daunomycin] | 0 | 0 | 0 | 0 | 0 | 30 | 103 | 0 | 0/10 | 0/10 | 103 | 0 | 0/10 | 0/10 | 103 | 10 | 1/10 | 0/10 | 152 | 0 | LTS (Long Term Survivors after 60 days) [2, 9]: 0/10; Toxic Deaths ([2]; 12.5 mg./kg. i.p.): 0/10; T/C (median survival time, % over untreated controls) [2, 10]: 222%; % LTS [2, 10]: 10%; LTS (Long Term Survivors after 60 days) [2, 10]: 1/10; Toxic Deaths ([2]; 25 mg./kg. i.p.): 0/10; T/C (median survival time, % over untreated controls) [2, 11]: 152%; % LTS [2, 11]: 0%; LTS (Long Term Survivors after 60 days) [2, 11]: 0/10; Toxic Deaths ([2]; 50 mg./kg. i.p.): 3/10; activity at 0.0062 µg/mL [3]: 67%; activity at 0.025 µg/mL [3]: 64%; activity at 0.1 µg/mL [3]: 52%; activity at 0.4 µg/mL [3]: 31%; IC50 at 72 h [4]: 0.08 µg/mL (≈ 0.122 µM); IC50 [5]: 0.045 µg/mL (≈ 0.0686 µM); activity at 0.0062 µg/mL [5]: 71%; activity at 0.025 µg/mL [5]: 64%; activity at 0.1 µg/mL [5]: 43%; activity at 0.4 µg/mL [5]: 2% |
